Measured values from patent US6716829B2, “Aldosterone antagonist and cyclooxygenase-2 inhibitor combination therapy to prevent or treat inflammation-related cardiovascular disorders” (Pharmacia Corporation, priority 2000, dated 2004).
Several values for one entry are separate records, joined by “and”; a condition that tells them apart may be missing. Equal values may be shown once.

Legend:
[1] = test system: aldosterone + salt treated uninephrectomized rats; assay: Assay C, further aldosterone infusion study: radiotelemetrized arterial (systolic) blood pressure; type: in vivo, Male Sprague-Dawley rats; details: for Systolic Blood Pressure (mmHg): mean ± SEM of values every 5 min over 24-hour period
Protocol: Assay C: Further In Vivo Aldosterone Infusion Study
The procedure of Assay B was expanded upon in a further study. […] Myocardial tissue from animals in each treatment group was examined after 7, 14, or 30 days of treatment.
Male Sprague-Dawley rats, weighing 230 to 250 g, (Harlan Sprague-Dawley Industries, Indianapolis, IN) were housed in a room 12-hours light/12-hours dark daily cycle at an ambient temperature of 22±1° C. (n=96). Animals were allowed one week to adjust after arrival and had free access to TEKLAD 22/5 rodent diet (Harlan TEKLAD, Madison, Wis.) and tap water until the initiation of the experiment.
Potassium chloride supplementation was added to the saline solution in order to prevent the potential hypokalemia associated with aldosterone excess.
At the time of the surgery, an Alzet 2002 osmotic minipump (Alza Corp., Palo Alto, Calif.) containing either vehicle (9% ethanol/87% propylene glycol/4% dH2O) or 1.0 mg/mL d-aldosterone (Sigma Chemical, St. Louis, Mo.) was inserted subcutaneously at the nape of the neck. Aldosterone was administered at a dose of 0.75 µg/hour. […] Animals were sacrificed from each group (n=8-13) after 7, 14, or 30 days of treatment.
Animals to be sacrificed after 7 or 14 days of treatment were uninephrectomized and implanted with an Alzet minipump. Animals treated for 30 days were uninephrectomized, fitted for Alzet minipumps, and implanted with radio telemetry units (model #TA11PA-C40, Data Sciences Inc., St. Paul, Minn.) according to the following procedure. Animals were anesthetized with 5% isoflurane (SOLVAY Animal Health Inc., Mendota Heights, Minn.), which was delivered in O2 using a VMS anesthesia instrument (Matrix Medical, Inc., Orchard Park, N.Y.). Anesthesia was maintained with 1-2% isoflurane throughout the surgical procedure. The surgery site was clipped, scrubbed with nolvasan, and sprayed with betadine. A rostral-caudal incision was made through the skin from the base of the rib cage to the pubic region using a #11 scalpel blade. A second incision was made through the muscles of the abdominal wall to expose the peritoneal cavity. The […], renal artery and vein of the left kidney were isolated, tied off with 4-0 silk, and the kidney excised and discarded. Organs were carefully displaced with tissue retractors in order to expose the abdominal aorta. A 1.5 cm segment just rostral to the bifurcation of the abdominal aorta into the iliac arteries was cleared of excessive connective tissue and 4-0 silk was used to make an anchor adjacent to the aorta. A microvascular clip was then placed at both ends of the cleaned region to stop excessive blood flow. Using a bent, 21 gauge needle, the abdominal aorta was penetrated. The cannula of the radio telemetry unit was inserted and stabilized in the aorta using the 4-0 silk anchor. Organs were repositioned and the telemetry unit was placed over the organs. Using a non-interrupted suture pattern with 4-0 silk, the abdominal wall was closed, and the skin was subsequently closed using a 4-0 silk in an interrupted suture pattern. Animals were injected around the sutures with 100 μL of the anesthetic Marcaine HCl (Sanofi Winthrop Pharmaceuticals, New York, N.Y.) and given an injection (i.m.) of the antibiotic Mandol (Eli Lilly & Co., Indianapolis, Ind.). Post-operative care included monitoring the animals on a heating pad during recovery from anesthesia until sternal recumbency was reestablished. Animals were monitored daily for signs of distress and infection at the surgical site. Animals displaying continued discomfort after surgery were treated with 0.1-0.5 mg/kg, s.c. Buphrenorphine (Rickett & Colman Pharmaceuticals, Inc. Richmond, Va.). Animals were then placed on tap water and TEKLAD 22/5 rodent diet (Harlan TEKLAD, Madison, Wis.).
Radiotelemetrized arterial blood pressure was calculated with the […]

hydroxyproline = assay: Assay C: myocardial hydroxyproline assay; type: in vivo, Male Sprague-Dawley rats
Protocol: The procedure of Assay B was expanded upon in a further study. […] Myocardial tissue from animals in each treatment group was examined after 7, 14, or 30 days of treatment. […] Lesions were preceded by the expression and progressive upregulation of proinflammatory molecules. […] Prior to surgery the animals were individually weighed and placed in one of the following groups: […] Potassium chloride supplementation was added to the saline solution in order to prevent the potential hypokalemia associated with aldosterone excess. […] Louis, Mo.) was inserted subcutaneously at the nape of the neck. Aldosterone was administered at a dose of 0.75 µg/hour. […] Animals were sacrificed from each group (n=8-13) after 7, 14, or 30 days of treatment. Following exsanguination, hearts and kidneys were isolated, removed, rinsed in cold phosphate-buffered saline, and blotted dry. […] Myocardial hydroxyproline concentration was measured by a […] assay that quantifies the reaction between oxidized hydroxyproline, and p-dimethylaminobenzaldehyde as described previously (4). […] Dried tissues and a positive collagen control (Bovine Collagen Type I, Sigma, St. […] T. Baker, Phillipsburg, N.J.) for 5 min at 25° C. […] Samples were incubated at 60° C. for 30 min, cooled to room temperature, and absorbance was monitored at 558 nm. Hydroxyproline content was quantitated from a freshly prepared standard curve of trans-4-hydroxy-L-proline (Sigma, St. Louis, Mo.). All samples and standards were performed in duplicate.

## COC(=O)[C@@H]1CC2=CC(=O)CC[C@]2(C)[C@@]23O[C@@H]2C[C@@]2(C)[C@@H](CC[C@@]24CCC(=O)O4)[C@H]13 [Eplerenone]
[1]; Day 3, individual rats, 30-day protocol, listed as Eplerenone + aldosterone + salt
  Systolic Blood Pressure: 123 mmHg and 126 mmHg (2×) and 130 mmHg (2×) and 128 mmHg and 119 mmHg and 125 mmHg (2×)
[1]; Day 3
  Systolic Blood Pressure (mmHg): 126 ± 1 mmHg
[1]; Day 4, individual rats, 30-day protocol, listed as Eplerenone + aldosterone + salt
  Systolic Blood Pressure: 130 mmHg (2×) and 128 mmHg (2×) and 131 mmHg and 139 mmHg and 122 mmHg and 126 mmHg and 134 mmHg
[1]; Day 4
  Systolic Blood Pressure (mmHg): 130 ± 2 mmHg
[1]; Day 5, individual rats, 30-day protocol, listed as Eplerenone + aldosterone + salt
  Systolic Blood Pressure: 132 mmHg (2×) and 134 mmHg and 143 mmHg and 123 mmHg and 127 mmHg (2×) and 133 mmHg and 142 mmHg
[1]; Day 5
  Systolic Blood Pressure (mmHg): 132 ± 2 mmHg
[1]; Day 6, individual rats, 30-day protocol, listed as Eplerenone + aldosterone + salt
  Systolic Blood Pressure: 133 mmHg (2×) and 142 mmHg and 136 mmHg and 152 mmHg and 126 mmHg and 137 mmHg and 140 mmHg and 150 mmHg
[1]; Day 6
  Systolic Blood Pressure (mmHg): 139 ± 3 mmHg
[1]; Day 7, individual rats, 30-day protocol, listed as Eplerenone + aldosterone + salt
  Systolic Blood Pressure: 140 mmHg (3×) and 142 mmHg and 143 mmHg and 156 mmHg (2×) and 132 mmHg and 141 mmHg
[1]; Day 7
  Systolic Blood Pressure (mmHg): 143 ± 3 mmHg
[1]; Day 8, individual rats, 30-day protocol, listed as Eplerenone + aldosterone + salt
  Systolic Blood Pressure: 142 mmHg and 146 mmHg and 141 mmHg and 156 mmHg and 131 mmHg and 138 mmHg (2×) and 139 mmHg and 152 mmHg
[1]; Day 8
  Systolic Blood Pressure (mmHg): 142 ± 3 mmHg
[1]; Day 9, individual rats, 30-day protocol, listed as Eplerenone + aldosterone + salt
  Systolic Blood Pressure: 142 mmHg and 146 mmHg and 139 mmHg and 154 mmHg and 130 mmHg and 133 mmHg and 137 mmHg and 141 mmHg and 151 mmHg
[1]; Day 9
  Systolic Blood Pressure (mmHg): 142 ± 3 mmHg
[1]; Day 10, individual rats, 30-day protocol, listed as Eplerenone + aldosterone + salt
  Systolic Blood Pressure: 143 mmHg (2×) and 138 mmHg and 158 mmHg and 134 mmHg and 136 mmHg and 139 mmHg and 142 mmHg and 149 mmHg
[1]; Day 10
  Systolic Blood Pressure (mmHg): 142 ± 2 mmHg
[1]; Day 11, individual rats, 30-day protocol, listed as Eplerenone + aldosterone + salt
  Systolic Blood Pressure: 145 mmHg (2×) and 139 mmHg and 138 mmHg and 160 mmHg and 136 mmHg and 137 mmHg and 140 mmHg and 152 mmHg
[1]; Day 11
  Systolic Blood Pressure (mmHg): 143 ± 3 mmHg
[1]; Day 12, individual rats, 30-day protocol, listed as Eplerenone + aldosterone + salt
  Systolic Blood Pressure: 147 mmHg and 140 mmHg (2×) and 139 mmHg (2×) and 165 mmHg and 137 mmHg and 148 mmHg and 154 mmHg
[1]; Day 12
  Systolic Blood Pressure (mmHg): 145 ± 3 mmHg
[1]; Day 13, individual rats, 30-day protocol, listed as Eplerenone + aldosterone + salt
  Systolic Blood Pressure: 148 mmHg and 144 mmHg and 137 mmHg and 170 mmHg and 140 mmHg (3×) and 149 mmHg
[1]; Day 13
  Systolic Blood Pressure (mmHg): 147 ± 3 mmHg
[1]; Day 14
  Systolic Blood Pressure (mmHg): 150 ± 4 mmHg
[1]; Day 15
  Systolic Blood Pressure (mmHg): 148 ± 4 mmHg
[1]; Day 16
  Systolic Blood Pressure (mmHg): 150 ± 4 mmHg
[1]; Day 17
  Systolic Blood Pressure (mmHg): 154 ± 5 mmHg
[1]; Day 18
  Systolic Blood Pressure (mmHg): 157 ± 5 mmHg
[1]; Day 19
  Systolic Blood Pressure (mmHg): 160 ± 5 mmHg
[1]; Day 20
  Systolic Blood Pressure (mmHg): 160 ± 5 mmHg
[1]; Day 21
  Systolic Blood Pressure (mmHg): 165 ± 6 mmHg
[1]; Day 22
  Systolic Blood Pressure (mmHg): 167 ± 6 mmHg
[1]; Day 23
  Systolic Blood Pressure (mmHg): 172 ± 6 mmHg
[1]; Day 25
  Systolic Blood Pressure (mmHg): 176 ± 6 mmHg
[1]; Day 26
  Systolic Blood Pressure (mmHg): 180 ± 7 mmHg
[1]; aldosterone + salt, uninephrectomized rats, up to 30 days, eplerenone 100 mg/kg/day
  Systolic Blood Pressure: significantly reduced at days 8-30
hydroxyproline; group mean, data used for Table 15 (14 days of treatment)
  Hydroxyproline: 4.46 µg/mg
hydroxyproline; group mean, data used for Table 16 (30 days of treatment)
  Hydroxyproline: 4.10 µg/mg
hydroxyproline; individual rats, data used for Table 15 (14 days of treatment), incl. rat marked * excluded from statistics, listed as Eplerenone + aldosterone + salt
  Hydroxyproline: 2.95 µg/mg and 5.97 µg/mg and 6.52 µg/mg and 5.35 µg/mg and 6.80 µg/mg and 5.32 µg/mg and 2.72 µg/mg and 3.13 µg/mg and 2.41 µg/mg and 2.81 µg/mg and 5.03 µg/mg
hydroxyproline; individual rats, data used for Table 16 (30 days of treatment), incl. rat marked * excluded from statistics, listed as Eplerenone + aldosterone + salt
  Hydroxyproline: 5.18 µg/mg and 6.11 µg/mg and 5.17 µg/mg and 6.40 µg/mg and 2.73 µg/mg and 2.84 µg/mg and 2.97 µg/mg and 2.82 µg/mg and 2.72 µg/mg and 5.75 µg/mg
hydroxyproline; mean after 7 days of treatment, eplerenone dose 100 mg/kg/day
  Hydroxyproline: 3.06 µg/mg
hydroxyproline; mean after 14 days of treatment, eplerenone dose 100 mg/kg/day
  Hydroxyproline: 4.46 µg/mg
hydroxyproline; mean after 30 days of treatment, eplerenone dose 100 mg/kg/day
  Hydroxyproline: 4.10 µg/mg
